Key:
sGC enzyme = experiment: cGMP GloSensor cell-based assay, 384-well format (HEK293); parameters: species or system human; conditions: HEK293 GloSensor 40F cGMP cells, 10 μM DETA-NONOate, geometrical mean; read-out: Glo EC50
Text: Human embryonic kidney cells (HEK293) cells expressing GloSensor™ 40F cGMP (Part No: CS182801, Promega) were used to evaluate the activity of test compounds. The luminescent biosensors (engineered luciferase) that were incorporated into these cells detect cGMP formed by the compounds stimulating the sGC enzyme and emit luminescence.
cGMP GloSensor cells were maintained in Dulbecco's Modification of Eagle's Medium (DMEM) supplemented with fetal bovine serum (FBS, 10% final) and hygromycine (200 ug/ml). The day before assay, cells were plated in DMEM with 10% FBS in a 50 μL volume at a density of 1.5×10^4 cells/well in a poly-D-lysine coated 384-well flat white-bottom plate (Corning Cat No 35661). Cells were incubated overnight at 37° C. in a humidified chamber with 5% CO2. The next day, medium was removed and cells were replaced with 40 ul/well of GloSensor™, 2 mM (Promega Cat No E1291). Cells were treated for 90 minutes at 25° C. to allow the substrate to equilibrate in the cells. Test compounds and Diethylenetriamine NONOate (DETA-NONOate) was diluted to 3 mM (20×) in serum-free CO2 independent medium and serially diluted at 4× dilutions to create 5× dose curve from which 10 ul was added to the wells (x μM concentration for test compound solution and 10 μM concentration for DETA-NONOate solution; wherein x is one of the following final concentrations: 30 μM, 7.5 μM, 1.9 μM, 469 nM, 117 nM, 29.3 nM, 7.3 nM, 1.83 nM, 0.46 nM, 0.11 nM, 0.03 nM) For the kinetics studies, luminescense was measured right away for 0.2 sec per well with Envision (Perkin Elmer). For endpoint SAR screening, data were collected after 55 min incubation at room temperature.
(§1) Concentration response data were analyzed using a 4-parameter fit (log (agonist) vs. response-variable slope). The EC50 was interpolated from the curve fit and is defined as the concentration at which the compound elicits 50% of its maximal response. When the experiment was carried out multiple times for a given compound, the geometrical mean of all experiments is reported.

human α2β1 sGC isozyme = molecular target: T1, human α2β1 sGC isozyme (Homo sapiens, UniProt P33402+Q02153); experiment: cGMP assay in CHO-K1 cells stably expressing human α2β1 sGC isozyme; assay type: cell-based; conditions: 10 μM DETA-NONOate
T1 construct: host or cells: CHO-K1
T1 sequence (P33402 1-732): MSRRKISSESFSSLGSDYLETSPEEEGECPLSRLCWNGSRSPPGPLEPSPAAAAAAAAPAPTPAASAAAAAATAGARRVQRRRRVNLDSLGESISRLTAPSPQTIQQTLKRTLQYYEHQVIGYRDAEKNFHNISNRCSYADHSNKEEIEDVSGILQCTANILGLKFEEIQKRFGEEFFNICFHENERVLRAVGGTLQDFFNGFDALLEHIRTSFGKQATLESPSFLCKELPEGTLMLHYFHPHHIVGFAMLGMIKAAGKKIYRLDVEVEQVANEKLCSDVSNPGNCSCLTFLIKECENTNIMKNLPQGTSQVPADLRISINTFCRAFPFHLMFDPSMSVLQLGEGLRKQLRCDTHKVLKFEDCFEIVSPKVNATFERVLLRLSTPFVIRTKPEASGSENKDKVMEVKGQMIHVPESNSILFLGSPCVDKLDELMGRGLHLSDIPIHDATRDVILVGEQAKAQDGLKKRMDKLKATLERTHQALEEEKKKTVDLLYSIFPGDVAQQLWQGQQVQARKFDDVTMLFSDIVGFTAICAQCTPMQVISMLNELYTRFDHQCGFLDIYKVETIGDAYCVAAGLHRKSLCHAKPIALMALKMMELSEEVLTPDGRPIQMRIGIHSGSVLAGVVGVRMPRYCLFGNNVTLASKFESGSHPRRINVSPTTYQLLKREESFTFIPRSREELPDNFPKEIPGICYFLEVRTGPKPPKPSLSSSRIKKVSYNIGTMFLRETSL
T1 sequence (Q02153 1-619): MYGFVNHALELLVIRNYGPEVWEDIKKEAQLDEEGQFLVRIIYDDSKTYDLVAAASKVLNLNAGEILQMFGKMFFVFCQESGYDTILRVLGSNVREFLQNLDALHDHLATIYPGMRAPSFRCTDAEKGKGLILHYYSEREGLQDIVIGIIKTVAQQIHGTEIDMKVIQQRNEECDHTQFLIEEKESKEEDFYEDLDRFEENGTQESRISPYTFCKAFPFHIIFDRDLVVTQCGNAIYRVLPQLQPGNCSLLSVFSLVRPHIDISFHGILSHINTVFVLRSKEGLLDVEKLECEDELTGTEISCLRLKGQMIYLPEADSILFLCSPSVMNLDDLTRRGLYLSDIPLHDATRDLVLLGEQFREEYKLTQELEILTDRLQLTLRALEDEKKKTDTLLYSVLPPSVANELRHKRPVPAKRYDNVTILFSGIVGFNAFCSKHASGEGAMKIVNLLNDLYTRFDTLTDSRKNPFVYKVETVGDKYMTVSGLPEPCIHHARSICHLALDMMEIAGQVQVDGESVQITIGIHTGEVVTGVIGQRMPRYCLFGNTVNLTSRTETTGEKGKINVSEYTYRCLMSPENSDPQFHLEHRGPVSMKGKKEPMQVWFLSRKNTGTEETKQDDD
Procedure: sGC stimulators were dissolved in DMSO as a 10 mM solution and stored at −20° C. To achieve desired test concentrations, stock concentrations were serially diluted into DMSO and then diluted to the appropriate concentration in assay buffer.
CHO-K1 cells stably transfected with human α2β1 sGC isozyme (generated by GenScript for Ironwood) were cultured in F-12K medium (ATCC catalog #30-2004) with 10% fetal calf serum, 4 μg/mL puromycin (Gibco catalog #A11138-03) and 0.4 mg/mL of geneticin (Gibco catalog #10131-027) in a 95% humidified atmosphere containing 5% CO2 in air at 37° C. For GC activity assays, cells were seeded in 384 well poly-D-lysine coated flat bottom plates (Fisher Scientific #08-774-311) in either 50 μL or 70 μL medium at a density of either 3×10^4 cells/well or 15×10^3, respectively. Cells were incubated for 24 hours at 37° C. in a humidified chamber supplemented with 5% CO2.
For each test concentration, the compound was diluted in 100% DMSO to 100-fold of its final assay concentration. Immediately prior to the assay, the solution was diluted 20-fold into HBSS containing calcium, magnesium, and 50 μM DETA-NONOate (5× the final assay concentration). Medium was removed and cells were washed once with 40 μL of HBSS. Cells were then incubated with 40 μL of a solution containing 0.5 mM IBMX in HBSS for 15 min at 37° C. 10 μL from the sGC stimulator/HBSS/DETA-NONOate plate was added to the cells, which were incubated for an additional 20 min at 37° C. Final DMSO concentration was 1%, final DETA-NONOate concentration was 10 μM; and final compound concentrations were 30,000 nM, 6000 nM, 1200 nM, 240 nM, 48 nM, 9.6 nM, 1.92 nM, 0.384 nM, 0.077 nM, 0.015 nM, or 0.003 nM.
Following incubation with compound, assay buffer was removed and 50 μL of ice-cold 10% acetic acid+150 ng/mL internal standard (+3 cGMP) was added to each well. Samples were incubated on ice for 30-60 min. Following centrifugation at 4° C. for 5 min at 1000×g to pellet cell debris, the supernatant was transferred to a clean plate and the samples analyzed for cGMP content.
as §1, with “Data” for “Concentration response data”, “with” for “using”, “(log(agonist)” for “(log (agonist)”, “slope) using GraphPad Prism Software v.8.” for “slope).”

EC50 (sGC enzyme): ≤ 100 nM
EC50 (human α2β1 sGC isozyme): ≤ 100 nM
SMILES: Cc1cc(F)c(Cc2nc(-c3ncc(Cl)c(O)n3)cn3ccnc23)cc1F [Compound I-17, 5-Chloro-2-(8-(2,5-difluoro-4-methylbenzyl)imidazo[1,2-a]pyrazin-6-yl)pyrimidin-4-ol]
